Values quoted from earlier work, collected in patent US20070292393A1, “USE OF THYMOSIN ALPHA 1 FOR PREPARING A MEDICAMENT FOR THE TREATMENT OF STAGE IV MALIGNANT MELANOMA” (SIGMA-TAU INDUSTRIE FARMACEUTICHE RIUNITE S.P.A., priority 2006, published 2007).

Tested on: metastatic melanoma

CN(C)/N=N/c1[nH]cnc1C(N)=O [DTIC, Dacarbazine]
effect of responses on patients' overall survival: no evidence | actual overall responses to DTIC (recent publications (J Clin Oncol, ASCO 2004)): 5.5-6.8% | duration of responses (responses short-lived): three to six
